From patent US20210260018A1, “COMPOSITION FOR TREATING FIBROTIC DISEASES, […] THI[…] AS ACTIVE INGREDIENT” (Cellion Biomed Inc., priority 2018, published 2021)

What was measured:
KCa2.3 channel [1] = test: KCa2.3 channel protein expression in hepatic stellate cells (western blotting); format: cell-based, human; settings: exposure for 24 hours
Description: (§1) Fibroblasts (CRL-2795; American Type Culture Collection, VA) were cultured in a Dulbecco's Modified Eagle Medium (Hyclone, Logan, Utah), human uterine microvascular endothelial cells (PromoCell GmbH, Heidelberg, Germany) were cultured in an MV2 medium (PromoCell GmbH), and human hepatic stellate cells (Innoprot, Bizkia, Spain) were cultured in a P60126 medium (Innoprot).
(§2) All cells were maintained under a 5% humidified carbon dioxide condition at 37° C. The cultured cells were exposed to each of PDGF, TGFβ, and the compounds of Formulas A1 to A9 (CBM-N1 N9) for 24 hours, followed by performing experiments.
(§3) Cells were lysed with a protein extraction buffer solution, a protein concentration in a supernatant was determined by Bradford analysis, and […] of the protein was loaded on an SDS-PAGE gel and then transferred to a nitrocellulose membrane. The nitrocellulose membrane was blocked with 5% BSA-containing TEST (10 mM Tris-HCl, 150 mM NaCl, and 0.1% (v/v) Tween-20, pH 7.6) at room temperature for 1 hour. Blots were incubated overnight with primary antibodies, and then incubated with horseradish peroxidase-conjugated secondary antibodies for 1 hour. Bands were visualized by chemiluminescence. Data collection and processing were performed using an image analyzer (LAS-3000) and IMAGE GAUSE software (Fuji film, Japan).

KCa2.3 channel [2] = test: KCa2.3 channel protein expression in fibroblasts (western blotting); format: cell-based
Description: as §1, §2, §3

fibroblasts = test: MTT cell proliferation in fibroblasts exposed to TGFβ or PDGF; format: cell-based; settings: fibroblasts exposed to TGFβ (5 ng/ml) + compound for 24 hours
Description: as §1, §2
Cells were seeded in 96-well plates at 2×10^4 cells/well, and then exposed to TGFB, which promotes cell proliferation, for 24 hours. In addition, 0.1 mg of MTT was added to each well, followed by exposure for 4 hours at 37° C. Afterward, the culture medium was removed, the cells were lysed with dimethyl sulfoxide, and then absorbance was measured at 590 nm using the following devices.

[3] = system: fibrosis markers (α-SMA, collagen 1α, collagen 3α) in fibroblasts; test: Expression of fibrosis markers in fibroblasts exposed to TGFβ (western blotting); format: cell-based; settings: fibroblasts exposed to TGFβ (5 ng/ml) + compound for 24 hours
Description: as §1, §2, §3

[4] = system: western diet-induced liver disease mouse models; test: Western diet-induced liver disease mouse model; format: in vivo; settings: western diet mice
Description: (§4) To confirm the effects of the compounds of Formula A1 to A5 (CBM-N1˜N5) according to the present invention on liver inflammation and fibrosis, subsequent experiments were performed on […] wild-type mouse (purchased from Orient Bio). First, to induce liver disease in mice, thioacetamide (TAA) were administered to the mice (Experiment A), or the mice were raised on a western diet inducing fatty liver disease (Experiment B). The mice were divided into a normal control, a disease-induced group, and a drug-administered group, and among these three groups, […] were used in each group for Experiment A, and 10 mice were used in each group for Experiment B. A drug treatment method for the mice in each group is as follows:
(§5) (1) Normal control: The normal control in Experiment A was intraperitoneally injected three times a week with the same amount of TAA solvent used when TAA was injected into a disease-induced group, and the normal control in Experiment B was raised on a normal diet. In both of the Experiments A and B, a CM/1-N1 solvent was injected using an oral tube at the same amount as that of CBM-N1 injection five times a week. The TAA solvent was distilled water, the CBM-N1 solvent and a derivative thereof were a 1:1 mixture of DMSO and distilled water. In the accompanying drawings, C or Control refers to a normal control.
(2) Disease-induced group: The disease-induced group in the Experiment A was intraperitoneally injected with TAA at 100 mg/kg three times a week, the disease-induced group in the Experiment B was raised on a western diet (WD, 45% saturated fat, […], and water containing fructose and glucose). […]
Aspartic acid aminotransferase (AST, GOT) and alanine aminotransferase (ALT, GPT), total bilirubin and albumin concentrations were measured using blood collected from liver disease mouse models.
The mRNA expression levels of inflammation or fibrosis factors in extracted liver tissue were measured by real-time PCR. […]

KCa2.3 channel [5] = test: KCa2.3 channel expression in vascular endothelial cells (real-time PCR, western blotting); format: cell-based, human; settings: vascular endothelial cells with KCa2.3 expression increased with PDGF, treated for 24 hours
Description: as §1, §2
The mRNA expression levels of inflammation or fibrosis factors in extracted liver tissue were measured by real-time PCR. RNA of the liver tissue was isolated with a TRIzol reagent (Molecular Research Center, Cincinnati, Ohio), and single-stranded cDNA was synthesized using BcaBEST polymerase (TakaraShuzo), followed by a polymerase chain reaction.
Cells were lysed with a protein extraction buffer solution, a protein concentration in a supernatant was determined by Bradford analysis, and […] of the protein was loaded on an SDS-PAGE gel and then transferred to a nitrocellulose membrane. The nitrocellulose membrane was blocked with 5% BSA-containing TEST (10 mM Tris-HCl, 150 mM NaCl, and 0.1% (v/v) Tween-20, pH 7.6) at room temperature for 1 hour. […]

[6] = system: TAA-induced liver disease mouse models; test: TAA-induced liver disease mouse model; format: in vivo; settings: TAA mice; for ALT levels / AST blood levels: blood, mean±S.E.M
Description: as §4, §5
(2) Disease-induced group: The disease-induced group in the Experiment A was intraperitoneally injected with TAA at 100 mg/kg three times a week, the disease-induced group in the Experiment B was raised on a western diet (WD, 45% saturated fat, […], and water containing fructose and glucose). All CBM-N1 solvents in the Experiments A and B were administered using an oral tube at the same amount as that of CBM-N1 administration five times a week. In the accompanying drawings, TAA refers to a group in which a disease is induced by TAA, and \VD refers to a group in which a disease is induced by a western diet.
(3) Drug-administered group: In the Experiment A, the compounds of Formulas 1 to 5 (50 mg/kg/day, 5 times/week e administered with TAA (100 mg/kg, 3 times/week), and in the Experiment B, CBM-N1 to N5 (50 mg/kg/day, 5 times/week) were administered with a western diet. The mice treated by the above-described method for 16 weeks were instantly killed by excessively administering an anesthetic, and then the livers and blood were extracted. In the accompanying drawings, TAA+CBM-Ni, TAA+CBM-N2, TAA+CBM-N3, TAA+CBM-N4 and TAA+CBM-N5 refer to disease-induced groups to which the compounds of Formulas A1 to A5 were administered, respectively.
To histologically confirm the therapeutic effect of the compound of Formula A1 (CBM-N1) or the compound of Formula A9 (CBM-N9) in each mouse model, a paraffin tissue sample was prepared. Liver and lung tissues were fixed with a paraformaldehyde solution, and sliced to a thickness of 1 to 2 mm. The sectioned tissues were embedded in paraffin, sliced to a thickness of 4 μm to remove paraffin with xylene, and the xylene was removed with ethanol, followed by washing with tap water. The resulting tissues were subjected to hematoxylin and eosin staining (H&E staining) or immunohistochemistry.
(1) H&E staining: Nuclei were first stained (blue) with a Harris hematoxylin staining solution for 5 minutes, and counter-stained (pink) with an eosin solution.
(2) Immunohistochemistry for inflammation markers: Inflammation markers (CD82 and CD45) were stained with specific antibodies, and lymphoid cells were stained brown.
(3) Immunohistochemistry for fibrosis markers: Collagen was stained by Masson's trichrome staining, or reticulin fibers were stained by reticulin staining.
Aspartic acid aminotransferase (AST, GOT) and alanine aminotransferase (ALT, GPT), total bilirubin and albumin concentrations were measured using blood collected from liver disease mouse models. […]

[7] = blood, 50 mg/kg/day, 16 weeks, mean±S.E.M
[8] = liver tissue, versus disease-induced group

Row | SMILES | expression of the KCa2.3 channel protein (KCa2.3 channel [1]) | expression level of the KCa2.3 channel protein (KCa2.3 channel [2]) | cell proliferation (fibroblasts) | expression levels of the fibrosis markers (α-SMA, collagen 1α, collagen 3α proteins) [3] | ALT levels [4, 7] | AST blood levels [4, 7] | mRNA expression levels of inflammatory cytokines CCL2, IL6 and IL1α [4, 8] | expression of the KCa2.3 channel protein (KCa2.3 channel [5]) | number of inflammation cells (H&E staining of liver tissue) ([6]; 50 mg/kg/day, 16 weeks, versus disease-induced group) | ALT levels ([6]; 50 mg/kg/day, 16 weeks) | AST blood levels ([6]; 50 mg/kg/day, 16 weeks) | mRNA expression levels of fibrosis markers (Col1α, Col3α, Col4α, α-SMA, TGFR2) ([6]; liver tissue) | mRNA level of inflammation factors (inflammatory cytokines TNFα, CCL2, IL12, TGF, IL1α, IL6, MIP-2) [6, 8]
1 | NC(=O)C[S+]([O-])C(c1ccccc1)c1ccccc1 (centres unmarked) [CBM-N1, 2-(benzhydrylsulfinyl)acetamide] | reduced in hepatic stellate cells in a concentration-dependent manner | reduced | inhibited | reduced | 87.2±24.7 units/L | 71.4±19.8 units/L | decreased | significantly decreased | significantly decreased | 70.3±14.7 units/L | 62.7±11.6 units/L | decreased | decreased
2 | O=C(CSC(c1ccccc1)c1ccccc1)NCC1CCCO1 (centres unmarked) [CBM-N2, 2-(benzhydrylthio)-N-[(tetrahydrofuran-2-yl)methyl]acetamide] | significantly reduced |  |  |  |  |  |  |  |  | 113.4±7.9 units/L | 83.6±14.8 units/L |  | decreased
3 | O=C(CSC(c1ccccc1)c1ccccc1)Nc1ccccc1 [CBM-N3, 2-(benzhydrylthio)-N-phenylacetamide] |  |  |  |  |  |  |  |  |  | 103.0±6.9 units/L | 73.4±7.4 units/L |  | decreased
4 | CNC(=O)C[S+]([O-])C(c1ccccc1)c1ccccc1 (centres unmarked) [CBM-N4, 2-(benzhydrylsulfinyl)-N-methylacetamide] |  |  |  |  |  |  |  |  |  | 114.1±8.8 units/L | 66.6±9.4 units/L |  | decreased
